Consider two compounds from patent US8455662B2, “Formulations for benzimidazolyl pyridyl ethers” (Novartis AG, priority 2006, dated 2013).

The nature of the data set: Aqueous solubility of API at various pHs. It counts as physicochemical.

In the case of `Cn1c(Nc2ccc(C(F)(F)F)cc2)nc2cc(Oc3ccnc(-c4ncc(C(F)(F)F)[nH]4)c3)ccc21` [{1-Methyl-5-[2-(5-trifluoromethyl-1H-imidazol-2-yl)-pyridin-4-yloxy]-1H-benzoimidazol-2-yl}-(4-trifluoromethyl-phenyl)amine], for the setting “water”, the Solubility in water entry is recorded as “practically insoluble”.
`Cn1c(Nc2ccc(C(F)(F)F)cc2)nc2cc(Oc3ccnc(-c4ncc(C(F)(F)F)[nH]4)c3)ccc21` [API, {1-methyl-5-[2-(5-trifluoromethyl-1H-imidazol-2-yl)-pyridin-4-yloxy]-1H-benzoimidazol-2-yl}-(4-trifluoromethyl-phenyl)amine] came in with a solubility (aqueous medium, pH 7, aqueous buffer) of less than 1 µg/mL.
